# pEC50: −log10 of the molar value. Activity calls are given as the source filed them.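 The calls were made as follows: active = growth-inhibition EC50 no more than tenfold above the top tested dose; inconclusive = flat fit between 30% and 70% inhibition, or unreliable fit; inactive = EC50 more than tenfold above the top tested dose.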
# Test system: E. coli NEB5alpha growth, BacTiter-Glo luminescence, 4 h
# Experiment: Escherichia coli growth inhibition, dose response, counter-screen for MEX-5/POS-1 RNA-binding inhibitor project, luminescence, NEB5alpha (AID 1959);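 also: pUC19-transformed ampicillin-resistant cells grown in LB with ampicillin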
SMILES,EC50,pEC50
CC1OC(Oc2c(-c3cc(O)c(O)c(O)c3)oc3cc(O)cc(O)c3c2=O)C(O)C(O)C1O (stereo not drawn),> 11 µM (inactive),
Cc1cc2nc3ccc(N(C)C)cc3nc2cc1N,> 11 µM (inactive),
O=C(NNC(=O)c1ccccc1[N+](=O)[O-])c1csc(N2CCOCC2)n1,> 11 µM (inactive),
O=C(O)c1ccc(-n2cccc2)cc1O,> 11 µM (inactive),
Cc1ccc(C2C(C(=O)c3ccco3)=C(O)C(=O)N2c2nnc(C)s2)cc1 (stereo not drawn),> 11 µM (inactive),
COc1cc(OC)c2c(O)c3c(c(-c4c5c(c(O)c6c(OC)cc(OC)cc46)CO[C@@H](C)[C@H]5O)c2c1)[C@H](O)[C@H](C)OC3,> 11 µM (inactive),
CC1(C)CC(=O)C2=C(C1)OC(N)=C(C#N)C2c1ccc(OC(=O)N2CCOCC2)cc1 (stereo not drawn),> 11 µM (inactive),
Cc1ccc([N+](=O)[O-])cc1S(=O)(=O)Nc1ccc(O)c(Sc2ncn[nH]2)c1,> 11 µM (inactive),
Cc1n[nH]c(C)c1N1C(=O)c2cccc3c(N4CCCCCC4)ccc(c23)C1=O,> 11 µM (inactive),
O=c1[nH]c(=O)n(CC2CCCO2)c(O)c1/C=C1\C=Nc2ccccc21 (stereo not drawn),> 11 µM (inactive),
O=C(N/N=C/c1cccn1-c1cccc(C(=O)O)c1)Nc1ccccc1,> 11 µM (inactive),
Cc1ccccc1NC(=O)/C(C#N)=C/c1ccc(-c2ccc(Cl)c(C(=O)O)c2)o1,> 11 µM (inactive),
Cc1ccc(N=Cc2cc(Br)cc(Cl)c2O)cc1,> 11 µM (inactive),
Brc1ccc(C2=CC(c3ccco3)n3ncnc3N2)cc1 (stereo not drawn),> 11 µM (inactive),
CC1=C(C#N)C(=O)NC(=O)/C1=C\c1ccc(-c2ccc(C)cc2[N+](=O)[O-])o1,> 11 µM (inactive),
NC(=O)c1c(NC(=O)c2ccccc2)sc2c1CCN(Cc1ccccc1)C2,> 11 µM (inactive),
Cc1cccc(CN2C(=O)N/C(=C/c3ccc(C)s3)C2=O)c1,> 11 µM (inactive),
N#CC1=C(N)C2=C(N3CCCCC3)CCCC2C1(C#N)C#N (stereo not drawn),> 11 µM (inactive),
CCOCCCn1c(=NC(=O)c2ccc(OC)c(OC)c2)c(C#N)cc2c(=O)n3cccc(C)c3nc21,> 11 µM (inactive),
Cc1ccc(S(=O)(=O)C(C#N)c2nc3ccccc3nc2N2CC(C)OC(C)C2)cc1C (stereo not drawn),> 11 µM (inactive),
COc1ccc(S(=O)(=O)NNC(=O)C(=O)NNc2ccccn2)cc1,> 11 µM (inactive),
COc1c(O)cc2oc(-c3ccc(O)c(O)c3)cc(=O)c2c1O,> 11 µM (inactive),
CC(C)CNC(=O)C1Nc2ccc(OC(F)(F)F)cc2C2C=CCC12 (stereo not drawn),> 11 µM (inactive),
COc1ccc(C2C(C#N)=C(/N=C/N3CCN(C)CC3)OC3=C2C(=O)CC(C)(C)C3)cc1OC (stereo not drawn),> 11 µM (inactive),

SMILES,EC50,pEC50
CC(=O)c1cc(NC(=O)c2cccc(C(F)(F)F)c2)c(=O)oc1/C=C/N(C)C,> 11 µM (inactive),
O=C(CCN1C(=O)C2CC=C(Cl)CC2C1=O)N1CCCCC1 (stereo not drawn),> 11 µM (inactive),
N#Cc1c(-c2ccc(Cl)cc2)c2c([nH]c1=O)-c1ccccc1OC2,> 11 µM (inactive),
COc1ccc(C(=O)NC2(C(F)(F)F)C(=O)N(Cc3ccco3)C3=C2C(=O)CC(C)(C)C3)cc1OC (stereo not drawn),> 11 µM (inactive),
Cc1cc(O)c(C(C)C)cc1N=C1CSC(=O)N1,> 11 µM (inactive),
CCCCC1=CC2=C(c3ccco3)C(=O)C(C)(OC(=O)c3ccc(OC)cc3)C(=O)C2=CN1C1CCCC1 (stereo not drawn),> 11 µM (inactive),
COc1cc(C2C(C#N)=C(N)OC3=C2C(=O)CC(C)(C)C3)cc2c1OCO2 (stereo not drawn),> 11 µM (inactive),
CCCCC1=CC2=CC(=O)C(C)(O)C(=O)C2=CO1 (stereo not drawn),> 11 µM (inactive),
CC(NC(=O)COc1ccccc1)C(=O)OCC(=O)c1cc2ccccc2o1 (stereo not drawn),> 11 µM (inactive),
O=C1CS/C(=C\[N+](=O)[O-])N1c1ccccc1,> 11 µM (inactive),
Fc1ccc2c(c1)C1C=CCC1C(c1cc3c(cc1Br)OCO3)N2 (stereo not drawn),> 11 µM (inactive),
Cc1ccc(N=Cc2sc(O)c3ccccc23)c(C)c1,> 11 µM (inactive),
O=C(/C=C/c1ccc(OCCCF)cc1)Nc1ccnc(-c2cccnc2)n1,> 11 µM (inactive),
COc1ccc(Nc2nc(-c3cccnc3)nc3ccccc23)cn1,> 11 µM (inactive),
CCN(CC)CCN(Cc1cc2ccc(C)c(C)c2[nH]c1=O)C(=S)NCc1ccco1,> 11 µM (inactive),
Cn1cccc1/C=C1\C(=O)NC(=O)N(Cc2ccco2)C1=O,> 11 µM (inactive),
C[C@@H]1Cc2c(O)c(O)cc(O)c2C(=O)O1,> 11 µM (inactive),
Cc1cc(/C=C2\C(=O)NC(=O)N(Cc3ccccc3)C2=O)c(C)n1C1CC1,> 11 µM (inactive),
Cc1cc(C)c(-n2c(O)c(/C=N/NC(=O)c3ccncc3)c(=O)[nH]c2=O)c(C)c1,> 11 µM (inactive),
COc1ccccc1N1C(=O)NC(=O)/C(=C/c2ccc([N+](=O)[O-])s2)C1=O,> 11 µM (inactive),
COc1ccc(-n2c(O)c(/C=C3\C=Nc4ccc(Br)cc43)c(=O)[nH]c2=O)c(OC)c1,> 11 µM (inactive),
Nc1c(C(=O)Nc2nc3ccccc3s2)sc2nc(-c3cccs3)ccc12,> 11 µM (inactive),
CC(=O)N(C1=C(Cl)C(=O)c2ccccc2C1=O)C1CCCCC1,> 11 µM (inactive),
CN(C)c1ccc(/C=C(\C#N)C(=O)NCc2ccco2)cc1,> 11 µM (inactive),

SMILES,EC50,pEC50
CC(C)Cc1nn2c(N)c(/C=C3\C=Nc4ccccc43)c(=O)nc2s1,> 11 µM (inactive),
CN(C)[C@@H]1C(=O)C(C(N)=O)=C(O)[C@@]2(O)C(=O)C3=C(O)c4c(O)cccc4[C@@](C)(O)C3[C@H](O)C12 (stereo partly drawn),,5.13
Cc1ccc(N/C=C/C(=O)c2sc(-c3ccccc3)nc2C)cc1,> 11 µM (inactive),
Cc1cccn2c(=O)c3cc(S(=O)(=O)c4ccccc4)c(=N)n(Cc4cccnc4)c3nc12,> 11 µM (inactive),
N=c1c(S(=O)(=O)c2ccc(Br)cc2)cc2c(=O)n3ccccc3nc2n1C1CCCCC1,> 11 µM (inactive),
COc1ccc(CC(=O)NNC2=Nc3cccc4cccc2c34)cc1,> 11 µM (inactive),
N#Cc1c(-c2ccccc2Cl)c2c([nH]c1=O)-c1ccccc1OC2,> 11 µM (inactive),
COCCCNC(=O)C(C#N)c1nc2ccccc2nc1N1CCCC1 (stereo not drawn),> 11 µM (inactive),
Cc1cc(C(=O)N/N=C/c2ccc(-c3cccc(Cl)c3Cl)o2)n[nH]1,> 11 µM (inactive),
O=C(O)CSc1cc(NS(=O)(=O)c2ccc(Cl)cc2)c2ccccc2c1O,> 11 µM (inactive),
CCCCC1=CC2=CC(=O)C(C)(OC(=O)c3cccs3)C(=O)C2=CO1 (stereo not drawn),> 11 µM (inactive),
Cc1cc(C=O)c(C)n1-c1cc(C(=O)O)cc(C(=O)O)c1,> 11 µM (inactive),
CCNc1nn2ccccc2c1/C=C(\C#N)C(=O)OCC,> 11 µM (inactive),
Nc1c(C(=O)c2ccc(Cl)cc2)sc2nsc(SCCN3CCOCC3)c12,> 11 µM (inactive),
COC(=O)c1ccc(-n2c(C)cc(/C=N/n3cnnc3)c2C)cc1,> 11 µM (inactive),
Cc1cc(C)cc(-n2c(O)c(C=Nc3ccc(N4CCOCC4)cc3)c(=O)[nH]c2=S)c1,> 11 µM (inactive),
CN1/C(=C/C=C(C#N)C#N)C(C)(C)c2ccccc21,> 11 µM (inactive),
CCN(CC)C(=O)c1ccc2c(c1)C1C=CCC1C(C(=O)O)N2 (stereo not drawn),> 11 µM (inactive),
COc1ccccc1OCC(=O)N/N=C/c1c(O)ccc2ccccc12,> 11 µM (inactive),
Nc1nonc1C(=O)NCCN=Cc1cc(Cc2ccccc2)cc(Br)c1O,> 11 µM (inactive),
Cc1ccc(-c2ccccc2)n1-c1ccc(C(=O)O)cc1,> 11 µM (inactive),
CCC(=O)OC1(C)C(=O)C2=COC(c3ccc(OC)cc3)=CC2=C(Br)C1=O (stereo not drawn),> 11 µM (inactive),
Cc1cc(-c2ccccc2)nc(N/N=C/c2ccc(O)cc2O)n1,> 11 µM (inactive),
CCOC(=O)N1CCN(C(=O)c2ccc3c(c2)NC(=O)/C(=C\c2ccc(OC)c(OC)c2)S3)CC1,> 11 µM (inactive),

SMILES,EC50,pEC50
Cc1ccc(CNC(=O)/C(C#N)=C\c2ccc(N(C)C)cc2)cc1,> 11 µM (inactive),
CCOC(=O)c1cc2c(=O)n3ccccc3nc2n(C(C)C)c1=NC(=O)c1ccncc1,> 11 µM (inactive),
Cc1[nH][nH]c(=O)c1/C=N/N1CCOCC1,> 11 µM (inactive),
N#Cc1ccccc1CN1C(=O)S/C(=C/c2cccn2-c2ccc(C(=O)O)cc2)C1=O,> 11 µM (inactive),
CCCN1CCc2cc(O)cc3c2[C@H]1Cc1ccc(O)c(O)c1-3,> 11 µM (inactive),
O=C(N/N=C/C=C/c1ccc([N+](=O)[O-])cc1)c1cccs1,> 11 µM (inactive),
CN1c2ccc(C=O)c3c(C=O)ccc(c23)N(C)C1(C)C,> 11 µM (inactive),
CCCCC1=CC2=C(c3ccco3)C(=O)C(C)(OC(=O)c3ccc(OC)cc3)C(=O)C2=CN1C1CC1 (stereo not drawn),> 11 µM (inactive),
Cc1ccc(/C=C2\C(=O)NC(=S)N(c3ccc(F)cc3)C2=O)o1,> 11 µM (inactive),
Cc1[nH][nH]c(=O)c1C(c1ccc(-c2cccc(C(=O)O)c2)o1)c1c(C)[nH][nH]c1=O,> 11 µM (inactive),
Cc1nc2c3ccccc3nc(NNC(=O)CCC(=O)N3CCCC(C)C3)n2n1 (stereo not drawn),> 11 µM (inactive),
NC(=O)CC(NC(=O)Cc1ccc(Cl)cc1)c1ccc(NC2CCCCCC2)c([N+](=O)[O-])c1 (stereo not drawn),> 11 µM (inactive),
CC(C)OC(=O)CC(=O)c1sc2nc3c(cc2c1N)CN(C)CC3,> 11 µM (inactive),
CCN1/C(=C2/SC(=S)N(NC(C)=O)C2=O)Sc2ccccc21,> 11 µM (inactive),
CC(C)(C)OC(=O)NCCCC1=CC2=CC(=O)C(C)(OC(=O)c3ccc(Cl)nc3)C(=O)C2=CO1 (stereo not drawn),> 11 µM (inactive),
COc1cc(C2C(C#N)=C(N)Oc3n[nH]c(-c4cccnc4)c32)cc(Br)c1O (stereo not drawn),> 11 µM (inactive),
COc1ccc(C2c3ccc(O)cc3Oc3ncn(Cc4ccco4)c(=N)c32)cc1OC (stereo not drawn),> 11 µM (inactive),
COCCCNC(=O)CCC(=O)NNc1nc2ccccc2c2nc(C)nn12,> 11 µM (inactive),
COc1ccc(-c2nnc(Nc3nc4c(OC)cccc4s3)o2)c(OC)c1,> 11 µM (inactive),
Nc1cc(S(=O)(=O)O)cc([N+](=O)[O-])c1O,> 11 µM (inactive),
Cc1ccn2c(=O)nc(SCC(=O)Nc3cc(C)on3)nc2c1,> 11 µM (inactive),

# From PubChem BioAssay AID1959 (Broad Institute, 2009)
